Measurements as given in patent US6677310B1, “Ring-expanded nucleosides and nucleotides” (Nabi, priority 1999, dated 2004).

What was measured:
Format in all cases: cell-based, human
DU-145 = assay: SRB anti-cancer assay, Prostate Cancer; conditions: DU-145 (Prostate Cancer), 48 h
HCT-116 = assay: SRB anti-cancer assay, Colon Cancer; conditions: HCT-116 (Colon Cancer), 48 h
MDA-MB-435 = assay: SRB anti-cancer assay, Breast Cancer; conditions: MDA-MB-435 (Breast Cancer), 48 h
COLO 205 = assay: SRB anti-cancer assay, Colon Cancer; conditions: COLO 205 (Colon Cancer), 48 h
MALME-3M = assay: SRB anti-cancer assay, Melanoma; conditions: MALME-3M (Melanoma), 48 h
NCI/ADR-RES = assay: SRB anti-cancer assay, Breast Cancer; conditions: 48 h
OVCAR-3 = assay: SRB anti-cancer assay, Ovarian Cancer; conditions: OVCAR-3 (Ovarian Cancer), 48 h
SK-MEL-28 = assay: SRB anti-cancer assay, Melanoma; conditions: SK-MEL-28 (Melanoma), 48 h
T-47D = assay: SRB anti-cancer assay, Breast Cancer; conditions: T-47D (Breast Cancer), 48 h
SW-620 = assay: SRB anti-cancer assay, Colon Cancer; conditions: SW-620 (Colon Cancer), 48 h
SNB-75 = assay: SRB anti-cancer assay, CNS Cancer; conditions: SNB-75 (CNS Cancer), 48 h
SF-268 = assay: SRB anti-cancer assay, CNS Cancer; conditions: SF-268 (CNS Cancer), 48 h
NCI-H460 = NCI-H460 (Non-Small Cell Lung Cancer), 48 h
SN12C = assay: SRB anti-cancer assay, Renal Cancer; conditions: 48 h
EKVX = EKVX (Non-Small Cell Lung Cancer), 48 h
KM12 = assay: SRB anti-cancer assay, Colon Cancer; conditions: 48 h
RPMI-8226 = assay: SRB anti-cancer assay, Leukemia; conditions: RPMI-8226 (Leukemia), 48 h
CAKI-1 = assay: SRB anti-cancer assay, Renal Cancer; conditions: CAKI-1 (Renal Cancer), 48 h
SK-OV-3 = assay: SRB anti-cancer assay, Ovarian Cancer; conditions: SK-OV-3 (Ovarian Cancer), 48 h
UACC-257 = assay: SRB anti-cancer assay, Melanoma; conditions: UACC-257 (Melanoma), 48 h
SR = assay: SRB anti-cancer assay, Leukemia; conditions: 48 h
OVCAR-4 = assay: SRB anti-cancer assay, Ovarian Cancer; conditions: OVCAR-4 (Ovarian Cancer), 48 h
CCRF-CEM = assay: SRB anti-cancer assay, Leukemia; conditions: 48 h
ACHN = assay: SRB anti-cancer assay, Renal Cancer; conditions: 48 h
HCT-15 = assay: SRB anti-cancer assay, Colon Cancer; conditions: HCT-15 (Colon Cancer), 48 h
OVCAR-8 = assay: SRB anti-cancer assay, Ovarian Cancer; conditions: OVCAR-8 (Ovarian Cancer), 48 h
A549/ATCC = A549/ATCC (Non-Small Cell Lung Cancer), 48 h
M14 = assay: SRB anti-cancer assay, Melanoma; conditions: 48 h
HCC-2998 = assay: SRB anti-cancer assay, Colon Cancer; conditions: HCC-2998 (Colon Cancer), 48 h
[1] = read-out: LC50 (the source's name)

N=c1nc(N)c2ncn([C@@H]3O[C@H](CO)[C@@H](O)[C@H]3O)c2c(N)n1 [Compound 14-2, 4,8-Diamino-6H-6-imino-1-β-D-ribofuranosylimidazo[4,5-e][1,3]diazepine]
GI50 (DU-145): 15 µM
TGI (DU-145): 30.2 µM
CC50 (DU-145; [1]): 60.7 µM
GI50 (HCT-116): 13.3 µM
TGI (HCT-116): 26.8 µM
CC50 (HCT-116; [1]): 54.2 µM
GI50 (MDA-MB-435): 12.8 µM
TGI (MDA-MB-435): 29.1 µM
CC50 (MDA-MB-435; [1]): 65.9 µM
GI50 (COLO 205): 21 µM
LC50 (COLO 205): 63.4 µM
TGI (COLO 205): 36.5 µM
GI50 (MALME-3M): 2.2 µM
LC50 (MALME-3M): 25.3 µM
TGI (MALME-3M): 6.79 µM
GI50 (NCI/ADR-RES): 23.4 µM
TGI (NCI/ADR-RES): 67.6 µM
CC50 (NCI/ADR-RES; [1]): > 100 µM
GI50 (OVCAR-3): 3.53 µM
TGI (OVCAR-3): 13.2 µM
CC50 (OVCAR-3; [1]): 42.3 µM
GI50 (SK-MEL-28): 25.4 µM
LC50 (SK-MEL-28): > 100 µM
TGI (SK-MEL-28): 81.1 µM
GI50 (T-47D): 13.3 µM
TGI (T-47D): 39.6 µM
CC50 (T-47D; [1]): > 100 µM
GI50 (SW-620): 17.2 µM
TGI (SW-620): >100 µM
CC50 (SW-620; [1]): > 100 µM
GI50 (SNB-75): 27.9 µM
LC50 (concentration killing 50% of cells) (SNB-75): > 100 µM
TGI (SNB-75): 99.1 µM
GI50 (SF-268): 15.7 µM
TGI (SF-268): 34.8 µM
CC50 (SF-268; [1]): 77.2 µM
GI50 (NCI-H460): 15.4 µM
TGI (NCI-H460): 31.4 µM
CC50 (NCI-H460; [1]): 64.1 µM
GI50 (SN12C): 14.5 µM
TGI (SN12C): 29.8 µM
CC50 (SN12C; [1]): 61.2 µM
GI50 (EKVX): 14.3 µM
TGI (EKVX): 27.3 µM
CC50 (EKVX; [1]): 52.3 µM
GI50 (KM12): 18.6 µM
LC50 (KM12): > 100 µM
TGI (KM12): 59.3 µM
GI50 (RPMI-8226): 32.8 µM
TGI (RPMI-8226): >100 µM
CC50 (RPMI-8226; [1]): > 100 µM
GI50 (CAKI-1): 20.3 µM
TGI (CAKI-1): 71 µM
CC50 (CAKI-1; [1]): > 100 µM
GI50 (SK-OV-3): 51.8 µM
TGI (SK-OV-3): >100 µM
CC50 (SK-OV-3; [1]): > 100 µM
GI50 (UACC-257): 12.7 µM
TGI (UACC-257): 25.8 µM
CC50 (UACC-257; [1]): 52.3 µM
GI50 (SR): > 100 µM
LC50 (concentration killing 50% of cells) (SR): > 100 µM
TGI (SR): >100 µM
GI50 (OVCAR-4): 16.7 µM
TGI (OVCAR-4): 35.6 µM
CC50 (OVCAR-4; [1]): 76.1 µM
GI50 (CCRF-CEM): 59 µM
TGI (CCRF-CEM): >100 µM
CC50 (CCRF-CEM; [1]): > 100 µM
GI50 (ACHN): 12.3 µM
TGI (ACHN): 27.2 µM
CC50 (ACHN; [1]): 59.9 µM
GI50 (HCT-15): 11.8 µM
TGI (HCT-15): 27.4 µM
CC50 (HCT-15; [1]): 63.5 µM
GI50 (OVCAR-8): 13.2 µM
LC50 (50% lethal concentration) (OVCAR-8): 75.3 µM
TGI (OVCAR-8): 31.5 µM
GI50 (A549/ATCC): 22.3 µM
TGI (A549/ATCC): 58.4 µM
CC50 (A549/ATCC; [1]): > 100 µM
GI50 (M14): 11.5 µM
TGI (M14): 24.3 µM
CC50 (M14; [1]): 51.1 µM
GI50 (HCC-2998): 16.4 µM
TGI (HCC-2998): 30.8 µM
CC50 (HCC-2998; [1]): 58 µM
